# Reference: patent US5196547A, “Meso-azacyclic amides of imidazopyridine carboxylic acids and analogs thereof” (G. D. Searle & Co., priority 1992, dated 1993)
# Target: T1, 5-HT3 receptor (Rattus norvegicus, UniProt P35563)
# T1 construct: Brain cortices are obtained from male rats and a membrane fraction prepared by standard techniques; from tissue; host or cells: male rat brain cortex, membrane fraction
# T1 sequence (P35563 24-483): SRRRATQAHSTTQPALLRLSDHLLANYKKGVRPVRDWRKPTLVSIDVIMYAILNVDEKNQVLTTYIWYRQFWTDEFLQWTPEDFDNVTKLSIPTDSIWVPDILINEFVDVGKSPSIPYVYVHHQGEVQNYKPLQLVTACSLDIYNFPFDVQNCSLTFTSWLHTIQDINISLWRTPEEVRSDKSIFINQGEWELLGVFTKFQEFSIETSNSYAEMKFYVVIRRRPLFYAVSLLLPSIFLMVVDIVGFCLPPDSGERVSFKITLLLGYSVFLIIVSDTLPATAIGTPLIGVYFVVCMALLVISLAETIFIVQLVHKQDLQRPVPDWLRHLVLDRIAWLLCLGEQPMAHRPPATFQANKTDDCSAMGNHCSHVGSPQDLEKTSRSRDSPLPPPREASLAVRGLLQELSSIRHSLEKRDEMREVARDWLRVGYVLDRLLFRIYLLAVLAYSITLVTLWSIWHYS
# Assay: Serotonin (5-HT3) radioligand receptor binding assay, [3H]-GR65630
# Procedure: 5-HT3 antagonism can be determined by the radioligand receptor binding assay as described herein and in the in vivo Bezold-Jarisch reflex procedure.
# GR65630 binds to the 5-HT3 receptor. Brain cortices are obtained from male rats and a membrane fraction prepared by standard techniques. 0.04 mg of membrane prep is incubated with 0.2 nM [^3 H]-GR656630 for 60 minutes at 22° C. […] Membranes are filtered and washed 3 times and the filters are counted to determine [3H]-GR65630 specifically bound.*
# *Literature References: Kilpatrick GJ, Jones BJ and Tyers MG. Identification and distribution of 5-HT3 receptors in rat brain using radioligand binding. Nature, 330 : 746-748, 1987.
Structure (SMILES),IC50 [nM],Ki [nM],Kd [nM],"% Specific Binding ([3H]-GR65630, non-specific binding in the presence of 1 uM ICS 205-930) [%]"
COc1cc(N)c(Cl)cc1C(=O)NC1CN2CCC1CC2 (centres unmarked) [Zacopride],0.55,0.18,–,–
COc1ccc2[nH]cc(C3=CCNCC3)c2c1 [RU24969],320,1850,–,–
Cc1nc[nH]c1CCC(=O)c1cn(C)c2ccccc12 [GR65630],–,–,2.46,70
c1ccc2nc(N3CCNCC3)ccc2c1 [Quipazine],0.5,0.18,–,–
